From patent US12606561B2, “Substituted pyrazolo[1,5-a][1,3,5]triazines as CDK inhibitors” (QURIENT CO., LTD., priority 2018, dated 2026)
pIC50: −log10 of the molar value.

Legend:
[1] = biological target: T1, CDK2/Cyclin A (Homo sapiens, UniProt P24941); test: Enzymatic assay for CDK2 (LANCE Ultra kinase assay, FRET based); format: biochemical; conditions: ATP at Km
T1 construct: purchased Invitrogen PV6290
Method: (§1) Enzymatic Binding Assay Protocol for CDK1, CDK2, CDK5 and CDK7
(§2) Inhibition activity of the respective compound on CDK kinase under Km value of ATP was tested in FRET based The LANCE® Ultra kinase assay (Perkin Elmer), which uses a ULight™-labeled peptide substrate and an appropriate Europium-labeled anti-phospho-antibody. Test compounds were made with DMSO solutions, and then 4-fold serial dilutions for 8 doses were prepared using automated liquid handler (POD™ 810, Labcyte) and 80 nL/well of diluted compound solutions were added into the 384-well plates (Greiner, Cat #784075). And then 68 nM of ULight-MBP peptide (Perkin Elmer, Cat #TRF0109-M) and 5 ul/well of ATP (Sigma, Cat #A7699) were added to the plate. After 1 min centrifugation at 1000 rpm, purified CDKs/Cyclin complex were added with the following concentrations respectively. 24 uM for CDK1/Cyclin B (Invitrogen, Cat #PR4768C), 22 uM for CDK2/Cyclin A (Invitrogen, Cat #PV6290), 10 uM for CDK5/p25 (Invitrogen, Cat #PR8543B) and […] for CDK7/Cyclin H/MNAT1 (Invitrogen, Cat #PR6749B) were added to each corresponding plate for CDK1, CDK2, CDK5 and CDK7. Incubate at 23° C. for 60 min and then Eu-labeled anti-phospho-Myelin Basic Protein (PE, Cat #TRF0201-M) and EDTA (Invitrogen, Cat #15575038) mixture in Lance Detection Buffer (Perkin Elmer, Cat #CR97100) was added in each well. After additional incubation at 23° C. for 60 min, test articles were measured the fluorescence using Envision leader (Perkin Elmer, USA) [Laser as excitation light; […] as the first and the second emission filter]. Data were analyzed using XL Fit software.

[2] = biological target: T2, CDK5/p25 (Homo sapiens, UniProt Q00535); test: Enzymatic assay for CDK5 (LANCE Ultra kinase assay, FRET based); format: biochemical; conditions: ATP at Km
T2 construct: purchased Invitrogen PR8543B
Method: as §1, §2

[3] = biological target: T3, CDK7/Cyclin H/MNAT1 (Homo sapiens, UniProt P50613); test: Enzymatic assay for CDK7 (LANCE Ultra kinase assay, FRET based); format: biochemical; conditions: for pIC50: ATP at Km
T3 construct: purchased Invitrogen PR6749B
Method: as §1
(§3) Inhibition activity of the respective compound on CDK kinase under Km value of ATP was tested in FRET based The LANCE® Ultra kinase assay (Perkin Elmer), which uses a ULight™-labeled peptide substrate and an appropriate Europium-labeled anti-phospho-antibody. […] After 1 min centrifugation at 1000 rpm, purified CDKs/Cyclin complex were added with the following concentrations respectively. […] Data were analyzed using XL Fit software.

[4] = biological target: T4, CDK1/Cyclin B (Homo sapiens, UniProt P06493); test: Enzymatic assay for CDK1 (LANCE Ultra kinase assay, FRET based); format: biochemical; conditions: ATP at Km; read-out: CDK1 enzymatic activity IC50
T4 construct: purchased Invitrogen PR4768C
Method: as §1, §3

[5] = test system: A2780; test: A2780 viability assay (CellTiter-Glo, 72 hours); format: cell-based; conditions: Homo sapiens; A2780 cells
Method: Human […] cell line, MV4-11_(ATCC, Cat #CRL-9591), NSCLC (Non-small cell lung cancer) cell line H460 (ATCC, Cat #HTB-177), A2780 (ECACC, Cat #93112519) and OVCAR-3(ATCC, Cat #HTB-161) were obtained from ATCC. Cells were grown in RPMI-1640 media (Invitrogen, Cat #22400-089) supplemented with 10% FBS (Invitrogen, Cat #10099141) and 1% penicillin/streptomycin (Invitrogen, Cat #15070063) and cultured at 37° C., 5% CO2 in a humidified chamber. All cell lines were routinely tested for mycoplasma.
To effect of the CDK7 inhibitor to inhibit the growth of target cancer cells, viability assay were conducted a 72 hour time period. Briefly, the candidate cell line was plated in 96 well plate at the following density of cells respectively. 1×10^4 cells/well for MV4-11, 5×10^3 for H460 and OVCAR-3, and 1×10^3 for A2780. After 24 hours, the cells were treated with various concentrations of the compound (ranging from 0.0015 uM to 10 uM). DMSO solvent without compound served as a control and final DMSO concentration lest than 0.1%. After 72 hours of incubation at 37° C., 5% CO2 incubator, cells were analyzed for the viability using the CellTiter-Glo Luminescent Cell Viability Assay (Promega, Cat #G7570). All viability assays were performed in duplicate and Luminescence was read using an Envision (Perkin Elmer, USA). Data was analyzed using XLfit software.

T3 sequence (P50613 whole entry): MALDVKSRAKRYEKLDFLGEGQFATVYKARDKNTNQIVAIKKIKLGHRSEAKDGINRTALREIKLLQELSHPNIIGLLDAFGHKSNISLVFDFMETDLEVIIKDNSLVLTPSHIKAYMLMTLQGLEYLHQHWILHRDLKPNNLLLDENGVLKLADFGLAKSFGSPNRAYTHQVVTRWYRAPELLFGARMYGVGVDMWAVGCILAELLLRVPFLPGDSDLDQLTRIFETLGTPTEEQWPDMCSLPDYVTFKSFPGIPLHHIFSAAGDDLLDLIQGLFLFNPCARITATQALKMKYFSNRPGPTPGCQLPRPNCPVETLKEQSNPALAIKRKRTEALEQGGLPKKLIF
T3 sequence (P51946 whole entry partner): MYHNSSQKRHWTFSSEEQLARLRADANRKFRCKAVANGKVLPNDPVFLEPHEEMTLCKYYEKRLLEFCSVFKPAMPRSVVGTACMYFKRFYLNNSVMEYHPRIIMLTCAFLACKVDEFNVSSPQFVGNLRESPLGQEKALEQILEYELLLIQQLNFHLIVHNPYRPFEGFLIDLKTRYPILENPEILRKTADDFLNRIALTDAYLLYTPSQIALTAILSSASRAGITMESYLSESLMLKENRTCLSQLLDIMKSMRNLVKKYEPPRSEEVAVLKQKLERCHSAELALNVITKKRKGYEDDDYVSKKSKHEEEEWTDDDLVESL
T3 sequence (P51948 whole entry partner): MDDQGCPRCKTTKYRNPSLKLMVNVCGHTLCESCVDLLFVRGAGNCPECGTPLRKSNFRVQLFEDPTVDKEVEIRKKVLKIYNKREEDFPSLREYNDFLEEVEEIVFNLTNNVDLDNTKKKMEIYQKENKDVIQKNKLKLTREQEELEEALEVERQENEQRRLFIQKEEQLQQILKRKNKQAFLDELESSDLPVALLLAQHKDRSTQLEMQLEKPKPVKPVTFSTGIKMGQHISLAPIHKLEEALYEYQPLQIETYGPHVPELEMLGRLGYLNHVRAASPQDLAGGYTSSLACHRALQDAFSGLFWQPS
T2 sequence (Q00535 whole entry): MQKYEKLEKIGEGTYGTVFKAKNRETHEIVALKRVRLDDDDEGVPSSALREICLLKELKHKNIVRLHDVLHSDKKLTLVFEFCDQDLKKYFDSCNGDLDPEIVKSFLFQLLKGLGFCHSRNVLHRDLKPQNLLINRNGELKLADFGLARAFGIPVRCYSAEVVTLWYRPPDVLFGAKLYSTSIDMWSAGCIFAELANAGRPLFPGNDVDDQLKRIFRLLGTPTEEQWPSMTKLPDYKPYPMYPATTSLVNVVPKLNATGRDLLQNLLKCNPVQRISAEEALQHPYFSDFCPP
T2 sequence (Q15078 99-307 partner limits assumed): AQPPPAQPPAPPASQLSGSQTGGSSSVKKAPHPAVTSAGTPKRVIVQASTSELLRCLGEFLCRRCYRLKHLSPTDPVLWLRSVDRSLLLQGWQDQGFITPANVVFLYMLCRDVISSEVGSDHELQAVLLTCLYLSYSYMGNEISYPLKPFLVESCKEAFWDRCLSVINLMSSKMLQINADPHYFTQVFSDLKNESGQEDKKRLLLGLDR
T4 sequence (P06493 whole entry): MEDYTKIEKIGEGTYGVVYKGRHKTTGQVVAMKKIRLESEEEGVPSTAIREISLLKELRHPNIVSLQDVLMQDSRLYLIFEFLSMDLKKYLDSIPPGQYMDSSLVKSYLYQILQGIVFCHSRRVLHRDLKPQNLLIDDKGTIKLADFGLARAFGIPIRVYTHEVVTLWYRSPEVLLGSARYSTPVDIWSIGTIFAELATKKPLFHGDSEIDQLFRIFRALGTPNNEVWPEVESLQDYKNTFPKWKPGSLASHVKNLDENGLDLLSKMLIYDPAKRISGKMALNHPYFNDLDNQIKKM
T4 sequence (P14635 whole entry partner): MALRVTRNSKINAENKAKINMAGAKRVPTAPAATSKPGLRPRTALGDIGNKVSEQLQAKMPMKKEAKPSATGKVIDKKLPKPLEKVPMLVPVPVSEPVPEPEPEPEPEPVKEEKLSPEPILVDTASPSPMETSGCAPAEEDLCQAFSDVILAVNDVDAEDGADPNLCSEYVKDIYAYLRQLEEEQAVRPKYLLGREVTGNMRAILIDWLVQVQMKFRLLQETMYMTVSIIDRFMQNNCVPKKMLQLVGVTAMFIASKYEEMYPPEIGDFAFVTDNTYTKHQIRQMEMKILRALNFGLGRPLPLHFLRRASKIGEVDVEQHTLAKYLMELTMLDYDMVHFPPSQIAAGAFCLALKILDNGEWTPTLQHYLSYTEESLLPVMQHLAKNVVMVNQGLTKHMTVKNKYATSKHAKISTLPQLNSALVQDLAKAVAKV

SMILES | pIC50 [1] | pIC50 [2] | pIC50 [3] | CDK1/CDK7: Selectivity of CDK7 inhibition over CDK1 inhibition [3] | CDK2/CDK7: Selectivity of CDK7 inhibition over CDK2 inhibition [3] | CDK5/CDK7: Selectivity of CDK7 inhibition over CDK5 inhibition [3] | pIC50 [4] | pIC50 [5]
C=C(F)C(=O)N1CCc2c(cccc2-c2ccccc2CNc2nc(N[C@@H]3CCCNC3)nc3c(C(C)C)cnn23)C1 [Compound 192] | < 6.00 | < 6.00 | > 7.00 | A (A indicates [fold] > 500) | A (A indicates [fold] > 500) | A (A indicates [fold] > 500) | < 6.00 | > 6.00
C=CC(=O)Nc1ccc2c(-c3ccccc3CNc3cc(Cl)nc4c(C(C)C)cnn34)nccc2c1 [Compound 193] | < 6.00 | < 6.00 | > 7.00 | A (A indicates [fold] > 500) | A (A indicates [fold] > 500) | A (A indicates [fold] > 500) | < 6.00 | > 6.00
C=CC(=O)Nc1ccc2c(-c3ccccc3CNc3nc(Nc4cccc(OC5CCC(C)(C)NC5)c4)nc4c(C(C)C)cnn34)nccc2c1 (stereo not shown) [Compound 194] | < 6.00 | < 6.00 | > 7.00 | A (A indicates [fold] > 500) | A (A indicates [fold] > 500) | A (A indicates [fold] > 500) | < 6.00 | > 6.00
C=CC(=O)Nc1ccc2c(-c3ccccc3CNc3cc(C)nc4c(C(C)C)cnn34)nccc2c1 [Compound 195] | < 6.00 | < 6.00 | > 7.00 | A (A indicates [fold] > 500) | A (A indicates [fold] > 500) | A (A indicates [fold] > 500) | < 6.00 | > 6.00
C=CC(=O)Nc1ccc2c(-c3ccccc3CNc3nc(NCc4cnc(C)s4)nc4c(C(C)C)cnn34)nccc2c1 [Compound 196] | < 6.00 | < 6.00 | < 6.00 | C (C indicates [fold] ≤ 50) | C (C indicates [fold] ≤ 50) | C (C indicates [fold] ≤ 50) | < 6.00 | 5.00 to 6.00
CC(C)c1cnn2c(NCc3ccccc3-c3cc4cccc(NC(=O)/C=C/CN(C)C)c4[nH]3)nc(N3CCC(Nc4nccs4)C3)nc12 (stereo not shown) [Compound 216] | < 6.00 | < 6.00 | 6.00 to 7.00 | B (B indicates 50 < [fold] ≤ 500) | B (B indicates 50 < [fold] ≤ 500) | B (B indicates 50 < [fold] ≤ 500) | < 6.00 | 

Further lines, results first:

pIC50 [1] | pIC50 [2] | pIC50 [3] | CDK1/CDK7: Selectivity of CDK7 inhibition over CDK1 inhibition [3] | CDK2/CDK7: Selectivity of CDK7 inhibition over CDK2 inhibition [3] | CDK5/CDK7: Selectivity of CDK7 inhibition over CDK5 inhibition [3] | pIC50 [4] | pIC50 [5] | SMILES
< 6.00 | < 6.00 | > 7.00 | A (A indicates [fold] > 500) | A (A indicates [fold] > 500) | A (A indicates [fold] > 500) | < 6.00 |  | CO[C@H]1CC[C@H](Nc2nc(NCc3ccccc3-c3nccc4cc(NC(=O)/C=C/CN5CCCCC5)ccc34)n3ncc(C(C)C)c3n2)CC1 [Compound 155]
< 6.00 | < 6.00 | > 7.00 | A (A indicates [fold] > 500) | A (A indicates [fold] > 500) | A (A indicates [fold] > 500) | < 6.00 | > 6.00 | C=CC(=O)Nc1ccc2c(-c3ccccc3CNc3cc(NC4CCC(C)(C)NC4)nc4c(C(C)C)cnn34)nccc2c1 (stereo not shown) [Compound 184]
< 6.00 | < 6.00 | > 7.00 | A (A indicates [fold] > 500) | A (A indicates [fold] > 500) | A (A indicates [fold] > 500) | < 6.00 | > 6.00 | CC(C)c1cnn2c(NCc3ccccc3-c3nccc4cc(NC(=O)/C=C/CN(C)C)ccc34)cc(NC3CCC(F)(F)CC3)nc12 [Compound 185]
< 6.00 | < 6.00 | > 7.00 | A (A indicates [fold] > 500) | A (A indicates [fold] > 500) | A (A indicates [fold] > 500) | < 6.00 | > 6.00 | C=CC(=O)Nc1ccc2c(-c3ccccc3CNc3cc(NC4CCC(F)(F)CC4)nc4c(C(C)C)cnn34)nccc2c1 [Compound 186]
< 6.00 | < 6.00 | > 7.00 | A (A indicates [fold] > 500) | A (A indicates [fold] > 500) | A (A indicates [fold] > 500) | < 6.00 | > 6.00 | C=CC(=O)Nc1ccc2c(-c3ccccc3CNc3cc(Nc4cccc(OC5CCC(C)(C)NC5)c4)nc4c(C(C)C)cnn34)nccc2c1 (stereo not shown) [Compound 187]
< 6.00 | < 6.00 | > 7.00 | A (A indicates [fold] > 500) | A (A indicates [fold] > 500) | A (A indicates [fold] > 500) | < 6.00 | > 6.00 | C=CC(=O)Nc1ccc2c(-c3ccccc3CNc3nc(Nc4cccnc4)nc4c(C(C)C)cnn34)nccc2c1 [Compound 188]
< 6.00 | < 6.00 | 6.00 to 7.00 | B (B indicates 50 < [fold] ≤ 500) | B (B indicates 50 < [fold] ≤ 500) | B (B indicates 50 < [fold] ≤ 500) | < 6.00 | 5.00 to 6.00 | C=CC(=O)Nc1ccc2c(-c3ccccc3CNc3nc(Nc4ccncc4)nc4c(C(C)C)cnn34)nccc2c1 [Compound 189]
< 6.00 | < 6.00 | > 7.00 | A (A indicates [fold] > 500) | A (A indicates [fold] > 500) | A (A indicates [fold] > 500) | < 6.00 | > 6.00 | C=C(C)C(=O)Nc1ccc2c(-c3ccccc3CNc3nc(OC4CCC(C)(C)NC4)nc4c(C(C)C)cnn34)nccc2c1 (stereo not shown) [Compound 190]
< 6.00 | < 6.00 | > 7.00 | A (A indicates [fold] > 500) | A (A indicates [fold] > 500) | A (A indicates [fold] > 500) | < 6.00 | > 6.00 | C=C(F)C(=O)N1CCc2c(cccc2-c2ccccc2CNc2nc(OC3CCC(C)(C)NC3)nc3c(C(C)C)cnn23)C1 (stereo not shown) [Compound 191]
